# Source: patent US8263576B2, “Non-natural sphingolipid analogs and uses thereof” (Mayo Foundation for Medical Education and Research, priority 2006, dated 2012)
# What was measured:
# rat fibroblasts = experiment: Inhibition of lipid analog endocytosis by biochemical treatments in rat fibroblasts; assay type: cell-based
# Excerpt: To define the molecular features of GSL analogs and their ability to selectively internalize by caveolar endocytosis, the structure of the natural D-erythro-LacCer compound was modified (Singh, R. D., et al. Mol. Biol. Cell, 2003, 14, 3254). The modifications included those to the structure of the fluorescent lipid through variations to its carbohydrate headgroup, chain length of the sphingosine base, or chain length of the fluorescent fatty acid (see FIG. 6). Tests were designed to test initial internalization and sensitivity to inhibitor treatments.
# To investigate the structural determinants of GSLs that result in selective internalization via caveolae, the structure of the fluorescent GSL analogs were systematically varied (see FIG. 6) and examined to determine the effect of these variations on the mechanism of analog internalization. To examine the significance of the carbohydrate head group, the fluorescent analogs of GalCer, globoside, GM1, LacCer, MalCer, and sulfatide were used. For each of these fluorescent GSL analogs, the fluorescent fatty acid and sphingosine base were identical (n′=3, n=7; FIG. 6A). Rat fibroblasts (RFs) were incubated with each analog in the presence or absence of various inhibitors to differentiate clathrin-dependent from clathrin-independent endocytosis, and the amount of internalization (at 5 min) was quantified by image analysis.
# A control experiment was carried out exactly as above, except that BODIPY-LacCer was introduced into cells from an ethanolic solution rather than from a BSA complex.
# Furthermore, the importance of hydrophobicity on the mechanism of GSL endocytosis was examined. For these studies, the BODIPY-LacCer analogs that were used varied the chain length of the sphingosine base (C12 to C20), or fatty acid (C3 vs. C5 spacer) (n=1, 5, 7, or 9; n′=1 or 3; FIG. 6A).
# Finally, a comparison between NBD-LacCer and NBD-D-PC (see FIG. 6B)was made to study the possible influence of the lipid backbone (ceramide vs. glycerol) on the internalization mechanism.
# [1] = system: clathrin-dependent endocytosis; details: Singh et al., J. Biol. Chem. 2006; cited from earlier work
# human eosinophils [2] = experiment: Eosinophil adhesion to tissue culture wells; assay type: cell-based
# β1-integrin = biological target: T1, β1-integrin (Homo sapiens, UniProt P05556); experiment: β1-integrin activation in HSFs (HUTS-4 Ab binding); assay type: cell-based; details: for HUTS binding (β1-integrin activation), agent alone: HSFs, lipid in the absence of β1-stim Ab, or β1-stim Ab alone
# T1 construct: endogenous in cells; host or cells: human skin fibroblasts (HSFs)
# T1 sequence (P05556 21-798): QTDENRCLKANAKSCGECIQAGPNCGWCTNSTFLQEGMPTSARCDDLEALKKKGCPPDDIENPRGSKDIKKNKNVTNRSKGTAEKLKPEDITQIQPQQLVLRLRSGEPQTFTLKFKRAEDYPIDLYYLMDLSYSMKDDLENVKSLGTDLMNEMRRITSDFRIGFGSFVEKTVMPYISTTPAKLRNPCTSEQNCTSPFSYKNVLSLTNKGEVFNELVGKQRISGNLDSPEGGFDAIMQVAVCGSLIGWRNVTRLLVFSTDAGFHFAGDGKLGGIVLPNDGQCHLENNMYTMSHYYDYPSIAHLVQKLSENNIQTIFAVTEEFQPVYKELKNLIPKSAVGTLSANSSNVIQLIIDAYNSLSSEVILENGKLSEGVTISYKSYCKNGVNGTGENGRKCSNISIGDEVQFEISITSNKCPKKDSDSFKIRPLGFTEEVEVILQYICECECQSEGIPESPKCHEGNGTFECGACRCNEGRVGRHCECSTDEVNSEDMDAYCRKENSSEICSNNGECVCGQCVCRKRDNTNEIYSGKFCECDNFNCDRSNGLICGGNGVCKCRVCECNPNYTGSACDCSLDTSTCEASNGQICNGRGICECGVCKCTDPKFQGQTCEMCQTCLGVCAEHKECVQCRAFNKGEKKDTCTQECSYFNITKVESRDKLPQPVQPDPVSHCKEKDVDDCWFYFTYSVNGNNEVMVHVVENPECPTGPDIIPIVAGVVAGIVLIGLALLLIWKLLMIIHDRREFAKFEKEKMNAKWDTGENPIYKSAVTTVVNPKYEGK
# Protocol: FIG. 4a: HSFs were serum-starved for 2-3 hrs and then either untreated (panel 1, Control) or incubated with a stimulating β1-integrin IgG (panel 2; β1-stim) or with the LacCer isomers (panels 3 & 4) for 30 min at 10° C. All samples were then warmed for 30 sec at 37° C., fixed and stained with HUTS-4 Ab that recognizes β1-integrin in its active conformation. Note the absence of β1-integrin activation in cells pretreated with C8-LT-LacCer. Quantitation in FIG. 4b was by image analysis (n≧10 cells/condition; 3 independent experiments). Bars, 10 μm.
# A further mechanistic possibility by which C8-LT-LacCer might inhibit caveolar internalization is by disruption transmembrane signaling events required for endocytosis. […] The first examination involved the activation of β1-integrin in HSFs following crosslinking with a stimulatory Ab (β1-stim Ab) using the HUTS-4 Ab which only binds to β1-integrins in their activated conformation (see, e.g., Luque, A. et al., J. Biol. Chem. 1996, 271, 11067).
# src kinase = experiment: src phosphorylation (Y416) immunoblot in HSFs; assay type: cell-based, human; details: for src activation (phosphorylation at Y416), lipid alone: 30 min at 10° C., then 30 sec at 37° C.; for src phosphorylation induced by β1-stim Ab: cells pretreated with lipid, data not shown
# Protocol: HSFs were treated with C8-DE-LacCer (±PP2), C8-LT-LacCer, PDGF, or with β1 stim Ab±LacCer isomers. Samples were warmed for 30 sec at 37° C., lysed, and the cell lysates blotted for src and phosphor-Src (Y416).
# Cells were incubated for 30 min at 10° C.± the LacCer stereoisomers and/or the β1-stim Ab followed by a 30 sec incubation at 37° C. Cell lysates were then immunoblotted for src and phospho-(Y416) src.
# SV40 virus [3] = experiment: SV40 infection of CV1 cells (large T antigen expression); assay type: cell-based, monkey; details: CV1 cells pretreated with lipid and SV40 at low temperature, then 37° C. for 14 hrs
# [4] = system: PM domains enriched in GM1 ganglioside; experiment: PM microdomain clustering induced by CtxB and anti-CtxB Ab in HSFs; assay type: cell-based, human; details: HSFs pretreated with lipid 30 min at 10° C.
# Excerpt: (§1) PM domains enriched in GM1 ganglioside (A,B) or cholesterol (C) were visualized using fluorescent CtxB or BC-⊖, respectively. Clustering of these probes was induced using an anti-CtxB Ab or SV40. Note the inhibition of microdomain clustering when cells were pretreated with C8-LT-LacCer, compared to untreated control samples. (A), HSFs; (B,C) CV1 cells. Bars, 10 μm.
# A potential mechanism for C8-LT-LacCer inhibition of caveolar endocytosis, namely disruption of PM microdomain formation, was explored. This mechanistic possibility was tested through incubation of cells with AF594-CtxB at 10° C. to label […] at the PM, followed by an anti-Ctx-B IgG.
# [5] = system: caveolar endocytosis in HSFs; experiment: Uptake of endocytic markers in human skin fibroblasts (fluorescence microscopy); assay type: cell-based; details: HSFs treated 30 min at 10° C. with lipid, pulse labeled, 5 min at 37° C.
# Protocol: HSFs were either untreated (Control) or treated for 30 min at 10° C. with D-erythro or L-threo-C8-LacCer, and then pulse labeled with fluorescent albumin or β1-integrin Fab (caveolar markers), Tfn (clathrin marker), dextran (fluid phase marker), or anti-IL2R Fab (for RhoA pathway). After 5 min at 37° C., cells were acid-stripped to remove non-internalized marker and images were acquired by fluorescence microscopy (A) and quantified (B). At least 20 cells for each condition were analyzed in multiple experiments. Bar, 10 μm.
# The non-natural (L-threo; LT) isomers of C8-LacCer and BODIPY-LacCer were synthesized. The latter was synthesized by the method detailed in Liu, Y., et al. Chem. Phys. Lipids, 2006, 142, 58 (referred to as Liu). C8-LT-LacCer was prepared through a modification of the methods used in Liu, where an activated for of octanoic acid was used in place of BODIPY-C5-NHS. HSFs were then either untreated (Control) or treated for 30 min at 10° C. with D-erythro (DE) or L-threo (LT) C8-LacCer, and then pulse labeled with fluorescent albumin or anti-β1-integrin Fab (caveolar markers), Tfn (clathrin marker), dextran (fluid phase marker), or anti-IL2R Fab (for RhoA pathway). After 5 min at 37° C., cells were acid-stripped to remove non-internalized marker and images were acquired by fluorescence microscopy (A) and quantified (B). At least 20 cells for each condition were analyzed in multiple experiments. Bar, 10 μm.
# [6] = system: PM domains enriched in GM1 ganglioside; details: Singh et al., 2006, submitted; cited from earlier work
# human eosinophils [7] = experiment: Eosinophil superoxide generation (cytochrome c reduction); assay type: cell-based; details: versus medium alone, 37° C., up to 4 h
# Protocol: Human eosinophils were purified from normal individuals or patients with mild allergy by Percoll density gradient centrifugation and magnetic cell sorting using MACS anti-CD16 microbeads as described by Hansel T. T., et al., J. Immunol. Methods 1991, 145, 105. Briefly, after peripheral blood was overlaid on an isotonic Percoll solution (1.084 g.ml, Sigma), the blood was centrifuges at 1000×g for 30 min at 4° C. Mononuclear cells at the interface were removed, and erythrocytes in sediment were lysed by two cycles of hypotonic water lysis. […] The purity of eosinophils counted by Randolph's stain was >98%. […]
# Superoxide anion generation and degranulation by human eosinophils were used as readouts of eosinophils functions in response to proteases or synthetic PAR activating peptides. Generation of superoxide by eosinophils was measured by superoxide dismutase-inhibitable reduction of cytochrome c as previously described with slight modifications. […] Immediately after addition of stimuli, the reaction wells were measured for absorbance at 550 nm in a microplate autoreader (Thermomax, Molecular Devices, Menlo Park, Calif.), followed by repeated readings. Between absorbance measurements, the plate was incubated at 37° C. […] To quantitate eosinophils degranulation, the concentrations of eosinphil-derived neutrotoxin (EDN) in the sample supernatants were measure by specific RIA.
# SV40 virus [8] = experiment: SV40 binding to CV1 cells (anti-SV40 VP1 MAb); details: lipid and SV40 at low temperature
# Protocol: (A, B) CV1 cells were incubated LacCer stereoisomers for 30 min at 10° C., and then coincubated for 1 hr at 10° C. with SV40 virus (MOI=15). Samples were washed, incubated for 40 hrs in complete medium, fixed, permeabilized, and stained for the Large T antigen. Values in (B) are mean ±SD (n≧50 cells/condition; three independent experiments). (C, D) CVI cells were treated with SV40 for 1 hr as in (A,B) and SV40 binding to live cells was detected using anti-SV40 VP1 MAb. Values in D are mean ±SD (n≧20 cells from two independent experiments).
# Cells were treated with the C8-LT-LacCer isomer and SV40 at low temperature, washed, and then incubated with a monoclonal antibody to the SV40 major capsid protein VP1.
# [9] = system: PM domains enriched in GM1 ganglioside and cholesterol; experiment: SV40-induced PM domain formation in CV1 cells; assay type: cell-based, monkey; details: CV1 cells pretreated with lipid, low temperature
# Excerpt: as §1
# [10] = system: clathrin-dependent endocytosis; experiment: Internalization route of BODIPY-LacCer stereoisomers; assay type: cell-based; details: data not shown
compound,measurement,setting,value
CCCCCCCCCCCCC/C=C/[C@@H](O)[C@H](CO[C@@H]1O[C@H](CO)[C@@H](O[C@@H]2O[C@H](CO)[C@H](O)[C@H](O)[C@H]2O)[C@H](O)[C@H]1O)NC(=O)CCCCc1ccc2n1[B-](F)(F)[N+]1=C(C)C=C(C)C1=C2 [BODIPY-LacCer],sensitivity of internalization to chlorpromazine (CPZ),rat fibroblasts,not by chlorpromazine
same,sensitivity of internalization to nystatin,rat fibroblasts,substantially inhibited
same,inhibition of endocytosis when delivered by ethanol injection vs. BSA complex,rat fibroblasts; ethanolic solution,virtually identical results
same,"Inhibition of lipid analog endocytosis, Clathrin-dependent internalization, Chloropromazine",rat fibroblasts; internalization at 5 min,9.3 ± 1.7%
same,"Inhibition of lipid analog endocytosis, Clathrin-dependent internalization, K+-depletion",rat fibroblasts; internalization at 5 min,10.4 ± 1.3%
same,"Inhibition of lipid analog endocytosis, Clathrin-independent internalization, Genistein",rat fibroblasts; internalization at 5 min,73.9 ± 4.1%
same,"Inhibition of lipid analog endocytosis, Clathrin-independent internalization, Nystatin",rat fibroblasts; internalization at 5 min,75.1 ± 6.8%
same,internalization route,[1],internalized via caveolae
CCCCCCCCCCCCC/C=C/[C@@H](O)[C@H](CO[C@@H]1O[C@H](CO)[C@@H](O[C@@H]2O[C@H](CO)[C@H](O)[C@H](O)[C@H]2O)[C@H](O)[C@H]1O)NC(=O)CCCCCCC [C8-DE-LacCer],adhesion of eosinophils,human eosinophils [2],induces adhesion of eosinophils to tissue culture wells
same,"HUTS binding (β1-integrin activation), agent alone",β1-integrin,activated β1-integrin
same,"src activation (phosphorylation at Y416), lipid alone",src kinase,activated (phosphorylated at Y416)
same,src phosphorylation induced by β1-stim Ab,src kinase,did not significantly affect src phosphorylation
same,SV40 infection monitored by expression of the large T antigen,SV40 virus [3],no effect
same,clustering of PM domains induced by labeled CtxB and crosslinking Ab,[4],No inhibition of domain formation was observed
same,"uptake of caveolar markers (fluorescent albumin, β1-integrin Fab)",[5],stimulated caveolar uptake
same,formation of PM domains in the absence of a crosslinking Ab,[6],induced the formation of large domains enriched in GM1 ganglioside and cholesterol
same,superoxide production by eosinophils,human eosinophils [7],A large quantity of superoxide was produced
"CCCCCCCCCCCCC/C=C/[C@H](O)[C@H](CO[C@@H]1O[C@H](CO)[C@@H](O[C@@H]2O[C@H](CO)[C@H](O)[C@H](O)[C@H]2O)[C@H](O)[C@H]1O)NC(=O)CCCCCCC [C8-LT-LacCer, β-D-lactosyl-N-octanoyl-L-threo-sphingosine]",HUTS binding (β1-integrin activation) induced by β1-stim Ab,β1-integrin; HSFs pretreated with lipid prior to β1-stim Ab,reduced HUTS binding to levels seen in untreated control cells
same,"HUTS binding (β1-integrin activation), agent alone",β1-integrin,no increase in HUTS binding was seen
same,"src activation (phosphorylation at Y416), lipid alone",src kinase,little or no src activation
same,src phosphorylation induced by β1-stim Ab,src kinase,inhibited src phosphorylation
same,SV40 infection monitored by expression of the large T antigen,SV40 virus [3],dramatically reduced
same,inhibition of SV40 binding to CV1 cells,SV40 virus [8],about 80%
same,clustering of PM domains induced by labeled CtxB and crosslinking Ab,[4],no clustering of PM domains was observed
same,"uptake of caveolar markers (fluorescent albumin, β1-integrin Fab)",[5],inhibited uptake of multiple caveolar markers
same,"uptake of caveolar markers (fluorescent albumin, β1-integrin Fab)",[5]; listed as LT-isomer of C8-LacCer,selectively inhibiting caveolar endocytosis
same,SV40 induction of PM domains,[9],prevented the SV40 induction of these PM domains
CC(C)(C)n1nc(-c2ccc(Cl)cc2)c2c(N)ncnc21 [PP2],src activation induced by C8-DE-LacCer,src kinase; with src inhibitor,blocked
C5-BODIPY-L-threo-lactosylceramide [BODIPY-LT-LacCer],fraction internalized by clathrin-dependent endocytosis,[10],65-70%
